Paper PMC10223265 (Viruses, 2023)
Read-outs that look alike come from different tables or passages of the source. Where a SMILES comes first, the peptide text is derived from it. Side-chain parts run from the residue outwards. The star is where a group is joined. X1 = CC(=O)N1CCC(C(=O)N(CCCN2CCC(Cc3ccc(C(=O)*)cc3)CC2)c2ccc(C)c(Cl)c2)CC1; PEG4 = NCCOCCOCCOCCOCCC(=O)O

Columns and labels:
[1] = test system: CEMx174 5.25M7 cells; assay: Cell Counting Kit-8 (CCK8) cytotoxicity assay; type: cell-based; conditions: at 2000 nM
[2] = Solubility (saturated solution, RP-HPLC); type: physicochemical
[3] = CD spectroscopy of isolated peptides; type: physicochemical; conditions: 10 μM, [θ]222nm
[4] = target: proteinase K (Parengyodontium album, UniProt P06873); assay: Metabolic stability in proteinase K solution; type: in vitro ADME; conditions: proteinase K 100 ng/mL, 50 μM peptide, 37 °C, 4-h incubation, read-out: original amount remaining
Sequence of proteinase K (P06873 106-384): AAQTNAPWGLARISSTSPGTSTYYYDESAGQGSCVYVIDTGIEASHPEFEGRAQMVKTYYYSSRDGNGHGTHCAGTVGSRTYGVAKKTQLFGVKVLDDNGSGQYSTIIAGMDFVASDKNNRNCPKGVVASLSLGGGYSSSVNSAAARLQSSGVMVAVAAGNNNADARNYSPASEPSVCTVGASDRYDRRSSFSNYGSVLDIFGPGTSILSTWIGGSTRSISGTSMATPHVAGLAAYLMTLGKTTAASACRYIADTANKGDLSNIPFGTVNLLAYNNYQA

[5] = test system: HIV-1 BaL strain (subtype B, R5); assay: HIV-1 infection assay (p24 ELISA), laboratory-adapted R5 virus; type: cell-based; conditions: Human immunodeficiency virus 1, BAL, CEMx174 5.25M7
[6] = test system: HIV-1 91US_4 (subtype B, R5); assay: HIV-1 infection assay, primary isolate 91US_4; type: cell-based; conditions: Human immunodeficiency virus 1, primary isolate 91US_4, subtype B, CEMx174 5.25 M7 cells
[7] = test system: HIV-1 strain 89BZ167 (subtype B, X4); assay: HIV-1 infection assay, primary isolate 89BZ167; type: cell-based; conditions: Human immunodeficiency virus 1, CEMx174 5.25M7
[8] = test system: HIV-1 92UG029 (subtype A, X4); assay: HIV-1 infection assay, primary isolate 92UG029; type: cell-based; conditions: Human immunodeficiency virus 1, primary isolate 92UG029, subtype A, CEMx174 5.25 M7 cells
[9] = test system: HIV-1 J32228M4 (subtype D, R5); assay: HIV-1 infection assay, primary isolate J32228M4; type: cell-based; conditions: Human immunodeficiency virus 1, CEMx174 5.25 M7 cells
[10] = target: CCR5 (Homo sapiens, UniProt P51681); assay: RANTES-induced calcium mobilization assay in CCR5-expressing HEK293 cells; type: cell-based; conditions: RANTES 34.6 nM, HEK293 cells expressing Gα15 and CCR5, Fluo-4
Sequence of CCR5 (P51681 whole entry): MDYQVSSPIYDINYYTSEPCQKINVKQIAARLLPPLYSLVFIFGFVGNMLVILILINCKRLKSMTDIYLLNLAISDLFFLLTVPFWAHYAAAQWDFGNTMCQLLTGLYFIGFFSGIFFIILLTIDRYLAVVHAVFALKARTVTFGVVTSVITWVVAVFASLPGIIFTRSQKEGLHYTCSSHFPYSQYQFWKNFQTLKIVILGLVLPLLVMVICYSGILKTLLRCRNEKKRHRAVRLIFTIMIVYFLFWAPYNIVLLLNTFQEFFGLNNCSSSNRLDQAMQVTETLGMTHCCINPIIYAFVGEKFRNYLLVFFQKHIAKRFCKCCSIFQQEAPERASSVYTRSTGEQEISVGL

[11] = Metabolic stability in rat plasma; type: in vitro ADME; conditions: 37 °C, 4-h incubation, read-out: degradation
[12] = PBS pH 7.4, room temperature, read-out: Solubility in PBS (pH 7.4)

Which cytotoxicity [1] does the source give for `CC[C@H](C)[C@H](NC(=O)[C@H](CO)NC(=O)[C@H](CCC(=O)O)NC(=O)[C@H](CCC(=O)O)NC(=O)[C@H](CCC(N)=O)NC(=O)[C@H](CCCCN)NC(=O)[C@H](CCCCN)NC(=O)[C@@H](NC(=O)[C@H](CCC(N)=O)NC(=O)[C@H](CCC(=O)O)NC(=O)[C@H](CCC(=O)O)NC(=O)[C@@H](NC(=O)[C@H](CCCCN)NC(=O)[C@H](CCCCN)NC(=O)[C@@H](NC(=O)[C@H](CC(C)C)NC(=O)[C@H](CCC(=O)O)NC(=O)[C@H](CCC(=O)O)NC(=O)[C@H](CO)NC(=O)[C@H](CCCCN)NC(=O)[C@H](CCCCN)NC(=O)[C@@H](NC(=O)[C@H](CC(C)C)NC(=O)[C@H](CCC(=O)O)NC(=O)[C@H](CCC(=O)O)NC(=O)[C@@H](NC(=O)[C@H](CCCCN)NC(=O)[C@H](CCCCN)NC(=O)[C@H](CC(=O)O)NC(=O)[C@H](Cc1c[nH]c2ccccc12)NC(=O)[C@H](CCC(=O)O)NC(=O)[C@H](CCC(=O)O)NC(=O)[C@H](Cc1c[nH]c2ccccc12)NC(=O)[C@@H](NC(=O)[C@H](CCSC)NC(C)=O)[C@@H](C)O)[C@@H](C)CC)[C@@H](C)CC)[C@@H](C)CC)[C@@H](C)CC)[C@@H](C)CC)C(=O)N[C@@H](CCCCN)C(=O)N[C@@H](CCCCN)C(=O)N[C@@H](CCCCNC(=O)CCOCCOCCOCCOCCNC(=O)c1ccc(CC2CCN(CCCN(C(=O)C3CCN(C(C)=O)CC3)c3ccc(C)c(Cl)c3)CC2)cc1)C(N)=O` [AP3P4E] (Ac-MTWEEWDKKIEELIKKSEELIKKIEEQIKKQEESIKKK([PEG4-X1])-NH2) here?
The cytotoxicity was “no cytotoxicity”.

And the solubility at 24 h [2, 12]?
Its solubility at 24 h is > 60000 µg/mL.

What about the solubility at 24 h ([2]; dd-H2O, H2O, room temperature, read-out: Solubility in H2O) of the same compound?
The solubility at 24 h was > 60000 µg/mL.

And the “helical content (isolated peptide)” value [3]?
The value was 83%.

What about the remaining at 4 h, 50 μM [4] of the same compound?
The remaining at 4 h, 50 μM was 89.9%.

For `CC(=O)N1CCC(C(=O)N(CCCN2CCC(Cc3ccc(C(N)=O)cc3)CC2)c2ccc(C)c(Cl)c2)CC1` [TAK-220], which EC50 [5] is on record?
Its EC50 is 23.8 ± 13.3 nM.

What about the EC50 [6] of the same compound?
The EC50 was 12.1 ± 2.7 nM.

What about the EC50 [7] of the same compound?
Its EC50 is > 300 nM.

And the EC50 [8]?
Its EC50 is > 300 nM.

What about the EC50 [9] of the same compound?
Its EC50 is 161 ± 6.6 nM.

And the IC50 [10]?
The IC50 was 0.74 nM.

With `CC[C@H](C)[C@H](NC(=O)[C@H](CO)NC(=O)[C@H](CCC(=O)O)NC(=O)[C@H](CCC(=O)O)NC(=O)[C@H](CCC(N)=O)NC(=O)[C@H](CCCCN)NC(=O)[C@H](CCCCN)NC(=O)[C@@H](NC(=O)[C@H](CCC(N)=O)NC(=O)[C@H](CCC(=O)O)NC(=O)[C@H](CCC(=O)O)NC(=O)[C@@H](NC(=O)[C@H](CCCCN)NC(=O)[C@H](CCCCN)NC(=O)[C@@H](NC(=O)[C@H](CC(C)C)NC(=O)[C@H](CCC(=O)O)NC(=O)[C@H](CCC(=O)O)NC(=O)[C@H](CO)NC(=O)[C@H](CCCCN)NC(=O)[C@H](CCCCN)NC(=O)[C@@H](NC(=O)[C@H](CC(C)C)NC(=O)[C@H](CCC(=O)O)NC(=O)[C@H](CCC(=O)O)NC(=O)[C@@H](NC(=O)[C@H](CCCCN)NC(=O)[C@H](CCCCN)NC(=O)[C@H](CC(=O)O)NC(=O)[C@H](Cc1c[nH]c2ccccc12)NC(=O)[C@H](CCC(=O)O)NC(=O)[C@H](CCC(=O)O)NC(=O)[C@H](Cc1c[nH]c2ccccc12)NC(=O)[C@@H](NC(=O)[C@H](CCSC)NC(C)=O)[C@@H](C)O)[C@@H](C)CC)[C@@H](C)CC)[C@@H](C)CC)[C@@H](C)CC)[C@@H](C)CC)C(=O)N[C@@H](CCCCN)C(=O)N[C@@H](CCCCN)C(N)=O` [AP3] (Ac-MTWEEWDKKIEELIKKSEELIKKIEEQIKKQEESIKK-NH2) as the compound, how does the “helical content (isolated peptide)” value [3] read?
Its value is 86%.

And the IC50 [10]?
The IC50 was > 625 nM.

With enfuvirtide as the compound, how does the metabolised at 4 h, 50 μM [11] read?
Its metabolised at 4 h, 50 μM is 68%.

And the solubility thermodynamic at 24 h [2, 12]?
Its solubility thermodynamic at 24 h is 1020 ± 30 µg/mL.

What about the solubility thermodynamic at 24 h ([2]; water (dd-H2O), H2O, room temperature, read-out: Solubility in H2O) of the same compound?
The solubility thermodynamic at 24 h was 330 ± 10 µg/mL.

What about the remaining at 4 h, 50 μM [4] of the same compound?
Its remaining at 4 h, 50 μM is 35.8%.
